Values quoted from earlier work as cited in publication PMC7466129, “Solid Lipid Nanoparticles for Duodenum Targeted Oral Delivery of Tilmicosin” (Pharmaceutics, 2020).
Values after ≈ are worked out from the molar mass of the structure shown.

Experiments:
Mycoplasma = system: Mycoplasma; parameters: method as in PMID 29149886
[1] = parameters: method as in PMID 31614726; settings: 100 °C, 30 min
[2] = system: Actinobacillus pleuropneumoniae; parameters: method as in PMID 29139136

**Q.** Which results are given for `CC[C@H]1OC(=O)C[C@@H](O)[C@H](C)[C@@H](O[C@@H]2O[C@H](C)[C@@H](O)[C@H](N(C)C)[C@H]2O)[C@@H](CCN2C[C@H](C)C[C@H](C)C2)C[C@@H](C)C(=O)/C=C/C(C)=C/[C@@H]1CO[C@@H]1O[C@H](C)[C@@H](O)[C@@H](OC)[C@H]1OC` [tilmicosin, Tilmicosin]?
**A.** minimum inhibitory concentration (MIC) (Mycoplasma): ≤ 0.25 µg/mL; saturation solubility in carnauba wax [1]: 50%; saturation solubility in hydrogenated castor oil [1]: 25%; minimum inhibitory concentration (MIC) [2]: 0.5 µg/mL (≈ 0.575 µM)
